Counter-ions that a name gives are not always drawn. Marks after values point to notes of the source that are not given here.
System: guinea pigs
Test: Local anesthetic activity (infiltration anesthesia), pin-prick method after intradermal injection
Assay type: in vivo, guinea pig
Settings: 0.1 ml intradermal

CCCCN1CCCCC1CCN(c1ccccc1)C1CCc2ccccc2C1 (stereo not drawn) [Bu-CLAC-34•HCl]
Dermal anesthesia after intradermal injection: non-responding pinpricks of 36 (0.05%, 15 min): 36/36
Dermal anesthesia after intradermal injection: non-responding pinpricks of 36 (0.05%, 30 min): 36/36
Dermal anesthesia after intradermal injection: non-responding pinpricks of 36 (0.05%, 60 min): 36/36
Dermal anesthesia after intradermal injection: non-responding pinpricks of 36 (0.05%, 90 min): 36/36
Dermal anesthesia after intradermal injection: non-responding pinpricks of 36 (0.05%, 120 min): 36/36
Dermal anesthesia after intradermal injection: non-responding pinpricks of 36 (0.10%, 15 min): 36/36
Dermal anesthesia after intradermal injection: non-responding pinpricks of 36 (0.10%, 30 min): 36/36
Dermal anesthesia after intradermal injection: non-responding pinpricks of 36 (0.10%, 60 min): 36/36
Dermal anesthesia after intradermal injection: non-responding pinpricks of 36 (0.10%, 90 min): 36/36
Dermal anesthesia after intradermal injection: non-responding pinpricks of 36 (0.10%, 120 min): 36/36

CCN(CC)CC(=O)Nc1c(C)cccc1C [Lidocaine.HCl, lidocaine, reference compound]
Dermal anesthesia after intradermal injection: non-responding pinpricks of 36 (0.25%, 15 min): 31/36
Dermal anesthesia after intradermal injection: non-responding pinpricks of 36 (0.25%, 30 min): 21/36
Dermal anesthesia after intradermal injection: non-responding pinpricks of 36 (0.25%, 60 min): 6/36
Dermal anesthesia after intradermal injection: non-responding pinpricks of 36 (0.25%, 90 min): 4/36
Dermal anesthesia after intradermal injection: non-responding pinpricks of 36 (0.25%, 120 min): 1/36
Dermal anesthesia after intradermal injection: non-responding pinpricks of 36 (0.50%, 15 min): 24/36
Dermal anesthesia after intradermal injection: non-responding pinpricks of 36 (0.50%, 30 min): 18/36
Dermal anesthesia after intradermal injection: non-responding pinpricks of 36 (0.50%, 60 min): 11/36
Dermal anesthesia after intradermal injection: non-responding pinpricks of 36 (0.50%, 90 min): 10/36
Dermal anesthesia after intradermal injection: non-responding pinpricks of 36 (0.50%, 120 min): 9/36
Dermal anesthesia after intradermal injection: non-responding pinpricks of 36 (1.00%, 15 min): 32/36
Dermal anesthesia after intradermal injection: non-responding pinpricks of 36 (1.00%, 30 min): 28/36
Dermal anesthesia after intradermal injection: non-responding pinpricks of 36 (1.00%, 60 min): 9/36
Dermal anesthesia after intradermal injection: non-responding pinpricks of 36 (1.00%, 90 min): 8/36
Dermal anesthesia after intradermal injection: non-responding pinpricks of 36 (1.00%, 120 min): 6/36

CCCN(CCC)CCN(c1ccccc1)C1CCc2ccccc2C1 (stereo not drawn) [CLAC-PP•HCl]
Dermal anesthesia after intradermal injection: non-responding pinpricks of 36 (0.05%, 15 min): 36/36
Dermal anesthesia after intradermal injection: non-responding pinpricks of 36 (0.05%, 30 min): 36/36
Dermal anesthesia after intradermal injection: non-responding pinpricks of 36 (0.05%, 60 min): 36/36
Dermal anesthesia after intradermal injection: non-responding pinpricks of 36 (0.05%, 90 min): 36/36
Dermal anesthesia after intradermal injection: non-responding pinpricks of 36 (0.05%, 120 min): 36/36
Dermal anesthesia after intradermal injection: non-responding pinpricks of 36 (0.10%, 15 min): 36/36
Dermal anesthesia after intradermal injection: non-responding pinpricks of 36 (0.10%, 30 min): 36/36
Dermal anesthesia after intradermal injection: non-responding pinpricks of 36 (0.10%, 60 min): 36/36
Dermal anesthesia after intradermal injection: non-responding pinpricks of 36 (0.10%, 90 min): 36/36
Dermal anesthesia after intradermal injection: non-responding pinpricks of 36 (0.10%, 120 min): 36/36

c1ccc(N(CCC2CCCCN2)C2CCc3ccccc3C2)cc1 (stereo not drawn) [CLAC-34•HCl]
Dermal anesthesia after intradermal injection: non-responding pinpricks of 36 (0.05%, 15 min): 35/36*
Dermal anesthesia after intradermal injection: non-responding pinpricks of 36 (0.05%, 30 min): 36/36**
Dermal anesthesia after intradermal injection: non-responding pinpricks of 36 (0.05%, 60 min): 6/36
Dermal anesthesia after intradermal injection: non-responding pinpricks of 36 (0.05%, 90 min): 36/36
Dermal anesthesia after intradermal injection: non-responding pinpricks of 36 (0.05%, 120 min): 36/36
Dermal anesthesia after intradermal injection: non-responding pinpricks of 36 (0.10%, 15 min): 36/36
Dermal anesthesia after intradermal injection: non-responding pinpricks of 36 (0.10%, 30 min): 36/36
Dermal anesthesia after intradermal injection: non-responding pinpricks of 36 (0.10%, 60 min): 36/36
Dermal anesthesia after intradermal injection: non-responding pinpricks of 36 (0.10%, 90 min): 36/36
Dermal anesthesia after intradermal injection: non-responding pinpricks of 36 (0.10%, 120 min): 36/36
